Assays:
PgUGT94B1 [1] = biological target: T1, PgUGT94B1 (Panax ginseng, UniProt A0A0A6ZFY4); experiment: In vitro glycosyltransferase assay with purified recombinant PgUGT94B1 and UDP-glucose; type: biochemical; details: 30 μg enzyme, 5 mM ginsenoside, 50 mM UDP-glucose, 35° C., 12 hours
T1 construct: GST (N); made in house; host or cells: E. coli BL21-CodonPlus (DE3)-RIL
T1 sequence (A0A0A6ZFY4 1-442): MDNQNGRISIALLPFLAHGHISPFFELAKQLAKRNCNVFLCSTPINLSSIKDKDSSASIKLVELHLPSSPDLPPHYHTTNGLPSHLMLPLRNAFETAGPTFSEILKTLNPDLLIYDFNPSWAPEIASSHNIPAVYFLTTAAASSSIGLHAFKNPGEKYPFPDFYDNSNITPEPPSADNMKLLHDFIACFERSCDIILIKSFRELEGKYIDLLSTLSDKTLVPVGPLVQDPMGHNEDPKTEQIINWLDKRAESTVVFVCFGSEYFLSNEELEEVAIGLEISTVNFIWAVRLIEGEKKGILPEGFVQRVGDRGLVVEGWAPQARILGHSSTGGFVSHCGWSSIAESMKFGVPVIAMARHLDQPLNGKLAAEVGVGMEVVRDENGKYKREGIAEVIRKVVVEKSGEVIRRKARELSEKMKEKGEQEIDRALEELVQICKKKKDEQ
Experimental: (§1) A glycosyltransferase assay was performed in a reaction buffer (10 mM PBS buffer, pH 7) containing the purified PgUGT74A1 or PgUGT94B1 (30 μg), a ginsenoside compound (5 mM) and UDP-glucose (50 mM).
(§2) The reaction mixture was incubated at 35° C. for 12 hours, and then the products were analyzed by thin-layer chromatography (TLC) or high performance liquid chromatography (HPLC).
(§3) TLC analysis was performed using a mobile phase (acetone:methanol:DDW=65:35:10 vol/vol) and a 60F254 silica gel plate (Merck, Germany). The resolved product on the TLC plate was detected by spraying the plate with 10% (vol/vol) sulfuric acid (H2SO4) and heating it at 110° C. for 5 minutes.
(§4) HPLC analysis was performed using ODS (2) C18 column (Phenomenex, USA). Water and acetonitrile gradient application time; and a component ratio are as follows: at a flow rate of 1 ml per minute for 0 minute, 68% water and 32% acetonitrile; 8 minutes, 35% water and 65% acetonitrile; 12 minutes, 0% water and 100% acetonitrile; 20 minutes, 0% water and 100% acetonitrile; 20.1 minutes, 68% water and 32% acetonitrile; and 28 minutes, 68% water and 32% acetonitrile.
(§5) Ginsenosides were detected by using a UV-detector (Younglin, Korea) at a wavelength of 203 nm.
First, the recombinant PgUGT of Example 1, PgUGT94B1, was incubated with 10 different types of ginsenosides (PPD, C-K, Rh2, F2, Rg3, Rd, Rg2, Rh1, F1 and PPT) in the presence of UDP-glucose, and then the products converted by the recombinant PgUGT were analyzed by TLC.

PgUGT74A1 [2] = biological target: T2, PgUGT74A1 (Panax ginseng, UniProt A0A0A6ZFR4); experiment: In vitro glycosyltransferase assay with purified recombinant PgUGT74A1 and UDP-glucose; type: biochemical; details: for ginsenoside into which the substrate is converted by PgUGT74A1: 30 μg enzyme, 5 mM ginsenoside, 50 mM UDP-glucose, 35° C., 12 hours
T2 construct: GST (N); made in house; host or cells: E. coli BL21-CodonPlus (DE3)-RIL
T2 sequence (A0A0A6ZFR4 1-451): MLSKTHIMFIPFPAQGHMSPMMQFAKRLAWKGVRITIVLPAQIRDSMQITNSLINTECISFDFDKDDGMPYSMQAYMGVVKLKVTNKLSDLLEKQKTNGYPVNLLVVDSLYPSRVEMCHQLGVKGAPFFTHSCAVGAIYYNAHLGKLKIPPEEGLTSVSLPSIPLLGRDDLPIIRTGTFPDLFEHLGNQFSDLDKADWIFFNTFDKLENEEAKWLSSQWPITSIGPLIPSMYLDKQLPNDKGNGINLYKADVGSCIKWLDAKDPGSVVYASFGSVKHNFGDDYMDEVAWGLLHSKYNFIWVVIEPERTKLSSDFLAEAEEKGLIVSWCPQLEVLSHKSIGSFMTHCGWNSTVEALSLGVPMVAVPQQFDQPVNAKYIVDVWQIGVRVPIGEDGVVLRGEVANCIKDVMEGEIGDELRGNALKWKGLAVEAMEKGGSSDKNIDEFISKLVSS
Experimental: as §1, §2, §3, §4, §5
First, the recombinant PgUGT of Example 1, PgUGT74A1, was incubated with 10 different types of ginsenosides (PPD, C-K, Rh2, F2, Rg3, Rd, Rg2, Rh1, F1 and PPT) in the presence of UDP-glucose, and the products converted by the recombinant PgUGT were analyzed by TLC.

PgUGT74A1 and PgUGT94B1 = experiment: Both enzymes reacted with the substrate in a single reaction tube, HPLC; type: biochemical, Panax ginseng; details: UDP-Glc
Experimental: PPD (upper panel) or C-K (lower panel) was incubated with both of PgUGT74A1 and PgUGT94B1 in the presence of UDP-Glc. Then the reaction mixture was analyzed by HPLC. […] Rg3 and Rd converted by the above two enzymes are marked as black triangles;
as §1, §2, §4, §5
In order to confirm this, the above two enzymes were reacted with PPD as a substrate in a single reaction tube. […] In addition, the two enzymes were reacted with C-K as a substrate in a single reaction tube.

ginseng = experiment: Concentrations of 4 major ginsenosides after spraying MeJA onto the leaf of ginseng; type: in vivo, Panax ginseng
Text: MeJA was sprayed on the leaf everyday for a total of 5 days, and on the 6th day after the start of the treatment, samples were collected for the expression analysis. […] Error bars show a standard deviation (SD) of three biological replicates; and
(§6) The 15-month old ginseng grown in a growth chamber under LD conditions was collected, and MeJA was sprayed onto its leaves everyday for a total of 5 days. To analyze expression level of the ginsenoside biosynthetic genes, samples were collected on the 6th days. […] However, expression of PgPPTS was not induced by MeJA under the conditions of the present invention.
In this regard, the concentrations of 4 major ginsenosides were measured after spraying MeJA onto the leaf of ginseng. The treatment of MeJA increased the concentrations of two PPD-type ginsenosides, Rd and Rb1, by 1.55 and 1.14 times respectively (FIG. 6c). In addition, the treatment of MeJA increased the concentrations of two PPT-type ginsenosides, Rg1 and Re, by 2.61 and 1.45 times respectively.

[3] = tested on: PgPPTS (protopanaxatriol synthase); experiment: Quantitative RT-PCR of PgPPTS in ginseng leaf after MeJA spraying; type: in vivo, Panax ginseng; details: ginseng leaves, 200 μM MeJA sprayed everyday for 5 days, sampled 6th day; normalized to tubulin
Experimental: (§7) Total RNA was isolated from the leaf or root of 15-month-old ginseng using a spectrum plant total RNA kit (Sigma-Aldrich). 200 μM methyl jasmonate (MeJA) was sprayed onto the leaves of ginseng everyday for a total of 5 days, and samples were collected on the 6th day. The 1 μg of total RNA was used for cDNA synthesis.
(§8) Expression levels of different genes were examined by a quantitative RT-PCR using the primer sets listed in the following Table 2, and the results were normalized to the expression level of tubulin.
as §6

PgUGT94B1 [4] = experiment: Quantitative RT-PCR of PgUGT94B1 in ginseng leaf after MeJA spraying; type: in vivo, Panax ginseng; details: ginseng leaves, 200 μM MeJA sprayed everyday for 5 days, sampled 6th day; normalized to tubulin
Experimental: as §7, §8, §6

[5] = tested on: PgPPDS (protopanaxadiol synthase); experiment: Quantitative RT-PCR of PgPPDS in ginseng leaf after MeJA spraying; type: in vivo, Panax ginseng; details: ginseng leaves, 200 μM MeJA sprayed everyday for 5 days, sampled 6th day; normalized to tubulin
Experimental: as §7, §8, §6

[6] = tested on: PgDS (dammarenediol-II synthase); experiment: Quantitative RT-PCR of PgDS in ginseng leaf after MeJA spraying; type: in vivo, Panax ginseng; details: ginseng leaves, 200 μM MeJA sprayed everyday for 5 days, sampled 6th day; normalized to tubulin
Experimental: as §7, §8, §6

PgUGT74A1 [7] = experiment: Quantitative RT-PCR of PgUGT74A1 in ginseng leaf after MeJA spraying; type: in vivo, Panax ginseng; details: ginseng leaves, 200 μM MeJA sprayed everyday for 5 days, sampled 6th day; normalized to tubulin
Experimental: as §7, §8, §6

Row | Compound | ginsenoside into which the substrate is converted by PgUGT94B1 (PgUGT94B1 [1]; HPLC) | ginsenoside into which the substrate is converted by PgUGT74A1 (PgUGT74A1 [2]; TLC) | ginsenoside into which the substrate is converted by PgUGT74A1 plus PgUGT94B1 (PgUGT74A1 and PgUGT94B1) | ginsenoside into which the substrate is converted by PgUGT74A1 (PgUGT74A1 [2]; HPLC) | ginsenoside into which the substrate is converted by PgUGT94B1 (PgUGT94B1 [1]; TLC) | further results
1 | CC(C)=CCC[C@](C)(O[C@@H]1O[C@H](CO)[C@@H](O)[C@H](O)[C@H]1O)[C@H]1CC[C@]2(C)[C@@H]1[C@H](O)C[C@@H]1[C@@]3(C)CC[C@H](O)C(C)(C)[C@@H]3CC[C@]12C [C-K, Compound K] | did not convert | ginsenoside F2 | Rd | – | – | –
2 | CC(C)=CCCC(C)(O)[C@H]1CC[C@]2(C)[C@@H]1[C@H](O)C[C@@H]1[C@@]3(C)CC[C@H](O)C(C)(C)[C@@H]3CC[C@]12C (stereo in doubt) [PPD, Protopanaxadiol] | did not convert | ginsenoside Rh2 | Rg3 | ginsenoside Rh2 | – | glycosylation by PgUGT74A1 of the hydroxyl groups at the C-12 and C-20 positions (PgUGT74A1 [2]; regioselectivity, positions other than C-3 of PPD): not glycosylated
3 | CC/C=C\C[C@H]1C(=O)CC[C@@H]1CC(=O)OC [MeJA, Methyl (1R,2R)-3-Oxo-2-(2Z)-2-pentenyl-cyclopentaneacetate] | – | – | – | – | – | increase of the concentration of ginsenoside Rb1 (ginseng; PPD-type ginsenoside): 1.14 times; increase of the concentration of ginsenoside Rd (ginseng; PPD-type ginsenoside): 1.55 times; increase of the concentration of ginsenoside Re (ginseng; PPT-type ginsenoside): 1.45 times; increase of the concentration of ginsenoside Rg1 (ginseng; PPT-type ginsenoside): 2.61 times; expression of PgPPTS [3]: not induced; expression level of PgUGT94B1 (PgUGT94B1 [4]): higher expression level; expression of PgPPDS [5]: enhanced; expression of PgDS [6]: enhanced; expression level of PgUGT74A1 (PgUGT74A1 [7]): higher expression level
4 | CC(C)=CCC[C@](C)(O)[C@H]1CC[C@]2(C)[C@@H]1[C@H](O)C[C@@H]1[C@@]3(C)CC[C@H](O[C@@H]4O[C@H](CO)[C@@H](O)[C@H](O)[C@H]4O)C(C)(C)[C@@H]3CC[C@]12C [ginsenoside Rh2] | ginsenoside Rg3 | – | – | did not convert | ginsenoside Rg3 | –
5 | CC(C)=CCC[C@](C)(O[C@@H]1O[C@H](CO)[C@@H](O)[C@H](O)[C@H]1O)[C@H]1CC[C@]2(C)[C@@H]1[C@H](O)C[C@@H]1[C@@]3(C)CC[C@H](O[C@@H]4O[C@H](CO)[C@@H](O)[C@H](O)[C@H]4O)C(C)(C)[C@@H]3CC[C@]12C [ginsenoside F2] | Rd | – | – | did not convert | ginsenoside Rd | –
6 | CC(C)=CCC[C@](C)(O)[C@H]1CC[C@]2(C)[C@@H]1[C@H](O)C[C@@H]1[C@@]3(C)CC[C@H](O)C(C)(C)[C@@H]3[C@@H](O)C[C@]12C [PPT, Protopanaxatriol] | – | – | – | – | – | glycosylation by PgUGT74A1 of the hydroxyl groups at the C-3, C-6, C-12 and C-20 positions (PgUGT74A1 [2]; regioselectivity, PPT): not glycosylated

Reference: US9670469B2, “UDP-glycosyltransferase derived from ginseng and use thereof” (KOREA ADVANCED INSTITUTE OF SCIENCE AND TECHNOLOGY, priority 2012, dated 2017)
